Laboratory results: patent US20230031406A1, “COMPOUNDS AND COMPOSITIONS FOR TREATING CONDITIONS ASSOCIATED WITH NLRP ACTIVITY” (Novartis AG, priority 2018, published 2023)
Blank lines part the entries; values can stand above or below the compound they belong to.

How the values were obtained:
[1] = tested on: PMA-differentiated THP-1 cells; assay: hTHP-1 assay containing 10% fetal bovine serum (IL-1β production, Tables B5 and B6); assay type: cell-based, human
Description: The following protocol is suitable for testing the activity of the compounds disclosed herein. Procedure 1: IL-1β Production in PMA-Differentiated THP-1 Cells Stimulated with Gramicidin.
THP-1 cells were purchased from the American Type Culture Collection and sub-cultured according to instructions from the supplier. Cells were cultured in complete RPMI 1640 (containing 10% heat inactivated FBS, penicillin (100 units/ml) and streptomycin (100 μg/ml)), and maintained in log phase prior to experimental setup. Prior to the experiment, compounds were dissolved in dimethyl sulfoxide (DMSO) to generate a 30 mM stock. The compound stock was first pre-diluted in DMSO to 3, 0.34, 0.042 and 0.0083 mM intermediate concentrations and subsequently spotted using Echo550 liquid handler into an empty 384-well assay plate to achieve desired final concentration (e.g. 100, 33, 11, 3.7, 1.2, 0.41, 0.14, 0.046, 0.015, 0.0051, 0.0017 μM). DMSO was backfilled in the plate to achieve a final DMSO assay concentration of 0.37%. The plate was then sealed and stored at room temperature until required.
THP-1 cells were treated with PMA (Phorbol 12-myristate 13-acetate) (20 ng/ml) for 16-18 hours. On the day of the experiment the media was removed and adherent cells were detached with trypsin for 5 minutes. […] The cells were plated in the 384-well assay plate containing the spotted compounds at a density of 50,000 cells/well (final assay volume 50 μl). Cells were incubated with compounds for 1 hour and then stimulated with gramicidin (5 μM) (Enzo) for 2 hours. Plates were then centrifuged at 340 g for 5 min. Cell free supernatant (40 μL) was collected using a 96—CHannel PlateMaster (Gilson) and the production of IL-1β was evaluated by HTRF (cisbio). The plates were incubated for 18 h at 4° C. and read using the preset HTRF program (donor emission at 620 nm, acceptor emission at 668 nm) of the SpectraMax i3x spectrophotometer (Molecular Devices, software SoftMax 6). A vehicle only control and a dose titration of CRID3 (100-0.0017 μM) were run concurrently with each experiment.
Procedure 2: IL-1β Production in PMA-Differentiated THP-1 Cells Stimulated with Gramicidin.
THP-1 cells were purchased from the American Type Culture Collection and sub-cultured according to instructions from the supplier. Prior to experiments, cells were cultured in complete RPMI 1640 (containing 10% heat inactivated FBS, penicillin (100 units/ml) and streptomycin (100 μg/ml)), and maintained in log phase prior to experimental setup. Prior to the experiment THP-1 were treated with PMA (Phorbol 12-myristate 13-acetate) (20 ng/ml) for 16-18 hours. Compounds were dissolved in dimethyl sulfoxide (DMSO) to generate a 30mM stock. On the day of the experiment the media was removed and adherent cells were detached with trypsin for 5 minutes. […] The cells were plated in a 384-well plate at a density of 50,000 cells/well (final assay volume […]). Compounds were first dissolved in assay medium to obtain a 5× top concentration of 500 μM. 10 step dilutions (1:3) were then undertaken in assay medium containing 1.67% DMSO. 5× compound solutions were added to the culture medium to achieve desired final concentration (e.g. 100, 33, 11, 3.7, 1.2, 0.41, 0.14, 0.046, 0.015, 0.0051, 0.0017 μM). Final DMSO concentration was at 0.37%. Cells were incubated with compounds for 1 hour and then stimulated with gramicidin (5 μM) (Enzo) for 2 hours. Plates were then centrifuged at 340 g for 5 min. Cell free supernatant (40 μL) was collected using a 96—CHannel PlateMaster (Gilson) and the production of IL-1β was evaluated by HTRF (cisbio). A vehicle only control and a dose titration of CRID3 (100-0.0017 μM) were run concurrently with each experiment.
Tables B1, B2, B3, and B4 show the biological activity of compounds in hTHP-1 assay containing 2% fetal bovine serum. […] Key: <0.008 μM=“++++++”; ≥0.008 and <0.04 μM=“+++++”; >0.04 and <0.2 μM=“++++”; ≥0.2 and <1 μM=“+++”; ≥1 and <5 μM=“++”; ≥5 and <30 μM=“+”. […]

[2] = tested on: PMA-differentiated THP-1 cells; assay: IL-1β production in PMA-differentiated THP-1 cells stimulated with gramicidin (hTHP-1 assay containing 2% fetal bovine serum; Procedures 1 and 2); assay type: cell-based, human; details: 2% fetal bovine serum, class symbols
Outline: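 Secreted IL-1β, read by HTRF, after gramicidin challenge (5 μM, 2 h) of THP-1 cells differentiated with PMA (20 ng/ml, 16-18 h) and plated at 50,000 cells/well in 2% FBS medium. Compounds, 0.0017-100 μM final with 0.37% DMSO, were added 1 h before stimulation.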

[3] = Homo sapiens, THP-1, read-out: hTHP-1 IC50 in 10% FBS, hTHP-1 assay containing 10% fetal bovine serum, Table B5
[4] = read-out: hTHP-1 IC50 in 10% FBS, hTHP-1 assay containing 10% fetal bovine serum, Table B6

SMILES: Cc1nc2c(c(NC(=O)N=S(N)(=O)c3scc(C(C)(C)O)c3F)c1-c1ccccc1)CCC2 (single isomer, unassigned) [Compound 1110a, (S) or (R)-3-fluoro-4-(2-hydroxypropan-2-yl)-N′-((2-methyl-3-phenyl-6,7-dihydro-5H-cyclopenta[b]pyridin-4-yl)carbamoyl)thiophene-2-sulfonimidamide]
IC50 ([1]; read-out: hTHP-1 IC50 in 10% FBS, hTHP-1 assay containing 10% fetal bovine serum, Table B5, listed as 844): 200 to 1000 nM

SMILES: CC(C)(O)c1csc(S(N)(=O)=NC(=O)Nc2c3c(nc4c2CCC4)CCC3)c1F (stereo not drawn) [Compound 1107, 3-Fluoro-N′-((1,2,3,5,6,7-hexahydrodicyclopenta [b,e]pyridin-8-yl)carbamoyl)-4-(2-hydroxypropan-2-yl)thiophene-2-sulfonimidamide]
IC50 [1, 3]: 40 to 200 nM

SMILES: Cc1nc2c(c(NC(=O)N=S(N)(=O)c3scc(C(C)(C)O)c3F)c1-c1ccccc1)CCC2 (single isomer, unassigned) [Compound 1110b, (R) or (S)-3-fluoro-4-(2-hydroxypropan-2-yl)-N′-((2-methyl-3-phenyl-6,7-dihydro-5H-cyclopenta[b]pyridin-4-yl)carbamoyl)thiophene-2-sulfonimidamide]
IC50 ([1]; read-out: hTHP-1 IC50 in 10% FBS, hTHP-1 assay containing 10% fetal bovine serum, Table B5, listed as 845): < 8 nM

SMILES: CCn1cc(F)c(S(N)(=O)=NC(=O)Nc2c(C)c(C(F)(F)F)nc3c2CC(C)C3)n1 (single isomer, unassigned) [Compound 1101d, (R, R) or (R, S)-N′-((3,6-dimethyl-2-(trifluoromethyl)-6,7-dihydro-5H-cyclopenta[b]pyridin-4-yl)carbamoyl)-1-ethyl-4-fluoro-1H-pyrazole-3-sulfonimidamide]
IC50 ([1]; read-out: hTHP-1 IC50 in 10% FBS, hTHP-1 assay containing 10% fetal bovine serum, Table B5, listed as 824): 200 to 1000 nM

SMILES: Cc1c(C(F)(F)F)nc2c(c1NC(=O)N=S(N)(=O)c1scc(C(C)(C)O)c1F)CCC2 (stereo not drawn) [Compound 1108, 3-Fluoro-4-(2-hydroxy-propan-2-yl)-N′-((3-methyl-2-(trifluoromethyl)-6,7-dihydro-5H-cyclopenta[b]pyridin-4-yl)carbamoyl)thiophene-2-sulfonimidamide]
IC50 [1, 3]: 40 to 200 nM

SMILES: CC(C)c1nc(CO)c(S(N)(=O)=NC(=O)Nc2c3c(nc4c2CCC4(C)C)CCC3)s1 (stereo not drawn) [Compound 680, N′-((3,3-dimethyl-1,2,3,5,6,7-hexahydrodicyclopenta[b,e]pyridin-8-yl)carbamoyl)-4-(hydroxymethyl)-2-isopropylthiazole-5-sulfonimidamide]
IC50 ([2]; Homo sapiens, THP-1, Table B2, read-out: hTHP-1 IC50): 1000 to 5000 nM

SMILES: CC1CCc2c1nc1c(c2NC(=O)N=S(N)(=O)c2ccn(C(C)C)n2)CCC1 (single isomer, unassigned) [Compound 129bb, (S,R) or (S,S)-1-isopropyl-N′-((3-methyl-1,2,3,5,6,7-hexa-hydrodicyclo-penta[b,e]pyridin-8-yl)carbamoyl)-1H-pyrazole-3-sulfonimidamide]
IC50 ([2]; Table B1, read-out: Average IC50 of compounds in hTHP-1 assay: hTHP-1 IC50): 5000 to 30000 nM

SMILES: C[C@@H]1CCc2c1nc1c(c2NC(=O)N=S(N)(=O)c2sc(CN(C)C)cc2F)CCC1 (single isomer, unassigned) [Compound 636a, (S) or (R)-5-((Dimethylamino)methyl)-3-fluoro-N′-(((R)-3-methyl-1,2,3,5,6,7-hexahydrodicyclopenta [b,e]pyridin-8-yl)carbamoyl) thiophene-2-sulfonimidamide]
IC50 ([2]; Table B2, read-out: hTHP-1 IC50): 5000 to 30000 nM

SMILES: CCn1cc(F)c(S(N)(=O)=NC(=O)Nc2c3c(nc4c2CC[C@H]4C)CCC3)n1 (stereo partly drawn) [Example 602, 1-Ethyl-4-fuoro-N′-(((R)-3-methyl-1,2,3,5,6,7-hexahydrodicyclopenta[b,e]pyridin-8-yl)carbamoyl)-1H-pyrazole-3-sulfonimidamide]
IC50 ([2]; Homo sapiens, THP-1, Table B3, hTHP-1 assay, read-out: IC50): 8 to 40 nM

Second part, the compound after the results:

IC50 ([1]; read-out: hTHP-1 IC50 in 10% FBS, hTHP-1 assay containing 10% fetal bovine serum, Table B5, listed as 849): 1000 to 5000 nM
SMILES: CCn1cc(F)c(S(N)(=O)=NC(=O)Nc2c3c(nc(C)c2C(F)(F)F)CCC3)n1 (single isomer, unassigned) [Compound 1116b, (S) or (R)-1-ethyl-4-fluoro-N′-((2-methyl-3-(trifluoromethyl)-6,7-dihydro-5H-cyclopenta[b]pyridin-4-yl)carbamoyl)-1H-pyrazole-3-sulfonimidamide]

IC50 ([1]; Homo sapiens, THP-1, read-out: hTHP-1 IC50 in 10% FBS, hTHP-1 assay containing 10% fetal bovine serum, Table B6): 40 to 200 nM
SMILES: Cc1c(C(F)(F)F)nc2c(c1NC(=O)N=S(N)(=O)c1nn(C3CC3)cc1F)CCC2 (stereo not drawn) [Example 854, 1-Cyclopropyl-4-fluoro-N′-((3-methyl-2-(trifluoromethyl)-6,7-dihydro-5H-cyclopenta[b]pyridin-4-yl)carbamoyl)-1H-pyrazole-3-sulfonimidamide]

IC50 ([1]; read-out: hTHP-1 IC50 in 10% FBS, hTHP-1 assay containing 10% fetal bovine serum, Table B5, listed as 851): 200 to 1000 nM
SMILES: C[C@@H]1CCc2c1nc1c(c2NC(=O)N=S(N)(=O)c2nn(C(C)(F)F)cc2F)CCC1 (single isomer, unassigned) [Compound 1117b, (S) or (R)-1-(1,1-difluoroethyl)-4-fluoro-N′-(((R)-3-methyl-1,2,3,5,6,7-hexahydrodicyclopenta[b,e]pyridin-8-yl)carbamoyl)-1H-pyrazole-3-sulfonimidamide]

IC50 [1, 4]: 1000 to 5000 nM
SMILES: Cc1c(C(F)(F)F)nc2c(c1NC(=O)N=S(N)(=O)c1nn(C3CC3)cc1F)CCC2 (single isomer, unassigned) [Example 870, (S) or (R)-1-cyclopropyl-4-fluoro-N′-((3-methyl-2-(trifluoromethyl)-6,7-dihydro-5H-cyclopenta[b]pyridin-4-yl)carbamoyl)-1H-pyrazole-3-sulfonimidamide]

IC50 [1, 4]: 200 to 1000 nM
SMILES: NS(=O)(=NC(=O)Nc1c2c(nc3c1CCC3)CCC2)c1nn(C2CC2)cc1F (single isomer, unassigned) [Example 864, (S) or (R)-1-cyclopropyl-4-fluoro-N′-((1,2,3,5,6,7-hexahydrodicyclopenta[b,e]pyridin-8-yl)carbamoyl)-1H-pyrazole-3-sulfonimidamide]

IC50 ([2]; Table B4, read-out: hTHP-1 IC50): 5000 to 30000 nM
SMILES: CCn1cc(F)c(S(N)(=O)=NC(=O)Nc2c3c(nc(C(F)(F)F)c2C2CC2)CCC3)n1 (single isomer, unassigned) [Example 774, (S) or (R)-N′-((3-cyclopropyl-2-(trifluoromethyl)-6,7-dihydro-5H-cyclopenta[b]pyridin-4-yl)carbamoyl)-1-ethyl-4-fluoro-1H-pyrazole-3-sulfonimidamide]
